Experimental data taken from patent publication US6114310A, “Efflux pump inhibitors” (priority 1998, dated 2000).

Test system: Pseudomonas aeruginosa PAM1001
Assay: microbe, parasite or virus in culture
Assay type: cell-based
Summary of the method: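 Checkerboard broth microdilution (NCCLS) with the efflux pump inhibitor and levofloxacin, each diluted along one axis of the plate, in Mueller Hinton Broth. Inoculum 5×10^5 CFU/ml from early-log culture; incubation 20 h at 35° C. Growth read at 650 nm and visually.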

[1] = Table 1, EPI Conc. μg/ml (number not given; column between 10 and 40 μg/ml)
[2] = Table 2, EPI Conc. μg/ml (number not given; column between 10 and 40 μg/ml)
[3] = Table 3, EPI Conc. μg/ml (number not given; column between 10 and 40 μg/ml)
[4] = Table 4, EPI Conc. μg/ml (number not given; column between 10 and 40 μg/ml)

| Substance | Levofloxacin MIC Against P. aeruginosa PAM1001 in Presence of Efflux Pump Inhibitor (EPI), Minimum Inhibitory Concentration (Table 1, EPI Conc. 0 μg/ml) | Levofloxacin MIC Against P. aeruginosa PAM1001 in Presence of Efflux Pump Inhibitor (EPI), Minimum Inhibitory Concentration (Table 1, EPI Conc. 0.625 μg/ml) | Levofloxacin MIC Against P. aeruginosa PAM1001 in Presence of Efflux Pump Inhibitor (EPI), Minimum Inhibitory Concentration (Table 1, EPI Conc. 5 μg/ml) | Levofloxacin MIC Against P. aeruginosa PAM1001 in Presence of Efflux Pump Inhibitor (EPI), Minimum Inhibitory Concentration (Table 1, EPI Conc. 10 μg/ml) | Levofloxacin MIC Against P. aeruginosa PAM1001 in Presence of Efflux Pump Inhibitor (EPI), Minimum Inhibitory Concentration (Table 1, EPI Conc. 40 μg/ml) | Levofloxacin MIC Against P. aeruginosa PAM1001 in Presence of Efflux Pump Inhibitor (EPI), Minimum Inhibitory Concentration [1] | Levofloxacin MIC Against P. aeruginosa PAM1001 in Presence of Efflux Pump Inhibitor (EPI), Minimum Inhibitory Concentration (Table 2, EPI Conc. 0 μg/ml) | Levofloxacin MIC Against P. aeruginosa PAM1001 in Presence of Efflux Pump Inhibitor (EPI), Minimum Inhibitory Concentration (Table 2, EPI Conc. 0.625 μg/ml) | Levofloxacin MIC Against P. aeruginosa PAM1001 in Presence of Efflux Pump Inhibitor (EPI), Minimum Inhibitory Concentration (Table 2, EPI Conc. 5 μg/ml) | Levofloxacin MIC Against P. aeruginosa PAM1001 in Presence of Efflux Pump Inhibitor (EPI), Minimum Inhibitory Concentration (Table 2, EPI Conc. 10 μg/ml) | Levofloxacin MIC Against P. aeruginosa PAM1001 in Presence of Efflux Pump Inhibitor (EPI), Minimum Inhibitory Concentration (Table 2, EPI Conc. 40 μg/ml) | Levofloxacin MIC Against P. aeruginosa PAM1001 in Presence of Efflux Pump Inhibitor (EPI), Minimum Inhibitory Concentration (Table 2, EPI Conc. […]) | Levofloxacin MIC Against P. aeruginosa PAM1001 in Presence of Efflux Pump Inhibitor (EPI), Minimum Inhibitory Concentration [2] | Levofloxacin MIC Against P. aeruginosa PAM1001 in Presence of Efflux Pump Inhibitor (EPI), Minimum Inhibitory Concentration (Table 3, EPI Conc. 0 μg/ml) | Levofloxacin MIC Against P. aeruginosa PAM1001 in Presence of Efflux Pump Inhibitor (EPI), Minimum Inhibitory Concentration (Table 3, EPI Conc. 0.625 μg/ml) | Levofloxacin MIC Against P. aeruginosa PAM1001 in Presence of Efflux Pump Inhibitor (EPI), Minimum Inhibitory Concentration (Table 3, EPI Conc. 5 μg/ml) | Levofloxacin MIC Against P. aeruginosa PAM1001 in Presence of Efflux Pump Inhibitor (EPI), Minimum Inhibitory Concentration (Table 3, EPI Conc. 10 μg/ml) | Levofloxacin MIC Against P. aeruginosa PAM1001 in Presence of Efflux Pump Inhibitor (EPI), Minimum Inhibitory Concentration (Table 3, EPI Conc. 40 μg/ml) | Levofloxacin MIC Against P. aeruginosa PAM1001 in Presence of Efflux Pump Inhibitor (EPI), Minimum Inhibitory Concentration [3] | Levofloxacin MIC Against P. aeruginosa PAM1001 in Presence of Efflux Pump Inhibitor (EPI), Minimum Inhibitory Concentration (Table 4, EPI Conc. 0 μg/ml) | other results |
| --- | --- | --- | --- | --- | --- | --- | --- | --- | --- | --- | --- | --- | --- | --- | --- | --- | --- | --- | --- | --- | --- |
| D-Ornithyl-D-β-(3-quinolinyl)alanine 2,3-trimethylenepyridyl-5-amide [Compound 41 (Table 2)] | 4 µg/mL | 4 µg/mL | 0.125 µg/mL | 0.06 µg/mL | 0.015 µg/mL | 0.015 µg/mL | 4 µg/mL | 4 µg/mL | 2 µg/mL | 1 µg/mL | 0.50 µg/mL | 4 µg/mL | 0.25 µg/mL | 4 µg/mL | 4 µg/mL | 4 µg/mL | 2 µg/mL | 0.50 µg/mL | 1 µg/mL | 4 µg/mL | Levofloxacin MIC Against P. aeruginosa PAM1001 in Presence of Efflux Pump Inhibitor (EPI), Minimum Inhibitory Concentration (Table 1, EPI Conc. […]): 2 µg/mL; Levofloxacin MIC Against P. aeruginosa PAM1001 in Presence of Efflux Pump Inhibitor (EPI), Minimum Inhibitory Concentration (Table 3, EPI Conc. […]): 4 µg/mL; Levofloxacin MIC Against P. aeruginosa PAM1001 in Presence of Efflux Pump Inhibitor (EPI), Minimum Inhibitory Concentration (Table 4, EPI Conc. 0.625 μg/ml): 4 µg/mL; Levofloxacin MIC Against P. aeruginosa PAM1001 in Presence of Efflux Pump Inhibitor (EPI), Minimum Inhibitory Concentration (Table 4, EPI Conc. 5 μg/ml): 2 µg/mL; Levofloxacin MIC Against P. aeruginosa PAM1001 in Presence of Efflux Pump Inhibitor (EPI), Minimum Inhibitory Concentration (Table 4, EPI Conc. 10 μg/ml): 0.50 µg/mL; Levofloxacin MIC Against P. aeruginosa PAM1001 in Presence of Efflux Pump Inhibitor (EPI), Minimum Inhibitory Concentration (Table 4, EPI Conc. […]): 4 µg/mL; Levofloxacin MIC Against P. aeruginosa PAM1001 in Presence of Efflux Pump Inhibitor (EPI), Minimum Inhibitory Concentration [4]: 0.50 µg/mL |
| D-Ornithyl-β-(N-4-methylphenethyl)alanine quinoline-3-amide [Compound 32 (Table 3)] | 4 µg/mL | 4 µg/mL | 1 µg/mL | 0.25 µg/mL | 0.25 µg/mL | 0.25 µg/mL | 4 µg/mL | 4 µg/mL | 2 µg/mL | 0.50 µg/mL | 0.06 µg/mL | 4 µg/mL | 0.50 µg/mL | 4 µg/mL | 4 µg/mL | 0.25 µg/mL | 0.06 µg/mL | 0.015 µg/mL | 0.03 µg/mL | 4 µg/mL | Levofloxacin MIC Against P. aeruginosa PAM1001 in Presence of Efflux Pump Inhibitor (EPI), Minimum Inhibitory Concentration (Table 4, EPI Conc. 0.625 μg/ml): 4 µg/mL; Levofloxacin MIC Against P. aeruginosa PAM1001 in Presence of Efflux Pump Inhibitor (EPI), Minimum Inhibitory Concentration (Table 4, EPI Conc. 5 μg/ml): 1 µg/mL; Levofloxacin MIC Against P. aeruginosa PAM1001 in Presence of Efflux Pump Inhibitor (EPI), Minimum Inhibitory Concentration (Table 4, EPI Conc. 10 μg/ml): 0.06 µg/mL; Levofloxacin MIC Against P. aeruginosa PAM1001 in Presence of Efflux Pump Inhibitor (EPI), Minimum Inhibitory Concentration (Table 4, EPI Conc. 40 μg/ml): 0.06 µg/mL; Levofloxacin MIC Against P. aeruginosa PAM1001 in Presence of Efflux Pump Inhibitor (EPI), Minimum Inhibitory Concentration [4]: 0.06 µg/mL |
| D-Ornithyl-β-(N-cyclohexylmethyl)alanine 2-naphthylamide [Compound 17 (Table 3)] | 4 µg/mL | 4 µg/mL | 0.06 µg/mL | 0.06 µg/mL | 0.015 µg/mL | 0.03 µg/mL | 4 µg/mL | 4 µg/mL | 4 µg/mL | 0.50 µg/mL | 0.015 µg/mL | 4 µg/mL | 0.06 µg/mL | 4 µg/mL | 4 µg/mL | 2 µg/mL | 0.50 µg/mL | 0.125 µg/mL | 0.125 µg/mL | 4 µg/mL | Levofloxacin MIC Against P. aeruginosa PAM1001 in Presence of Efflux Pump Inhibitor (EPI), Minimum Inhibitory Concentration (Table 1, EPI Conc. […]): 4 µg/mL; Levofloxacin MIC Against P. aeruginosa PAM1001 in Presence of Efflux Pump Inhibitor (EPI), Minimum Inhibitory Concentration (Table 3, EPI Conc. […]): 4 µg/mL; Levofloxacin MIC Against P. aeruginosa PAM1001 in Presence of Efflux Pump Inhibitor (EPI), Minimum Inhibitory Concentration (Table 4, EPI Conc. 0.625 μg/ml): 4 µg/mL; Levofloxacin MIC Against P. aeruginosa PAM1001 in Presence of Efflux Pump Inhibitor (EPI), Minimum Inhibitory Concentration (Table 4, EPI Conc. 5 μg/ml): 4 µg/mL; Levofloxacin MIC Against P. aeruginosa PAM1001 in Presence of Efflux Pump Inhibitor (EPI), Minimum Inhibitory Concentration (Table 4, EPI Conc. 10 μg/ml): 2 µg/mL; Levofloxacin MIC Against P. aeruginosa PAM1001 in Presence of Efflux Pump Inhibitor (EPI), Minimum Inhibitory Concentration (Table 4, EPI Conc. 40 μg/ml): 0.125 µg/mL; Levofloxacin MIC Against P. aeruginosa PAM1001 in Presence of Efflux Pump Inhibitor (EPI), Minimum Inhibitory Concentration (Table 4, EPI Conc. […]): 4 µg/mL; Levofloxacin MIC Against P. aeruginosa PAM1001 in Presence of Efflux Pump Inhibitor (EPI), Minimum Inhibitory Concentration [4]: 1 µg/mL |
